The text below walks through data of publication PMC11980595, “Pyruvate kinase directly generates GTP in glycolysis, supporting growth and contributing to guanosine toxicity” (mBio, 2025).

The structures appear in SMILES notation.

Assay type in all cases: biochemical
One assay addresses T1, L. monocytogenes PK (Listeria monocytogenes, UniProt Q8Y6W1).
T1 construct: gene pykA; construct and purification not described
T1 sequence (Q8Y6W1 1-585): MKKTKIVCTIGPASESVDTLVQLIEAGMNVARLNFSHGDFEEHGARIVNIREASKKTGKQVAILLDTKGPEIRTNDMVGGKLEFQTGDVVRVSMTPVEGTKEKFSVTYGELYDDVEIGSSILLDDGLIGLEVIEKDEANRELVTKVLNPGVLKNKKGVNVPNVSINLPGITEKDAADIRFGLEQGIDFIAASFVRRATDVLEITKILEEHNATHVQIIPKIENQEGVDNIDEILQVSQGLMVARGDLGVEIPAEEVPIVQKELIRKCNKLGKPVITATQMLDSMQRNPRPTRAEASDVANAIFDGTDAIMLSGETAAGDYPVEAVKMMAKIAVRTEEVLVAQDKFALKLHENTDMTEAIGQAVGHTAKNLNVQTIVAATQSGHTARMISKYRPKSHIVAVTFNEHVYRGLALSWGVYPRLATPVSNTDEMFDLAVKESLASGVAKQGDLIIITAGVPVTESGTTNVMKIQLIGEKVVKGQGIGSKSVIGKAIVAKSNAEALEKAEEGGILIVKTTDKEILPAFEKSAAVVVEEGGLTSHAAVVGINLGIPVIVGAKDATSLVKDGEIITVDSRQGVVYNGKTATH
Nature of the assay: pyruvate kinase activity assay, catalytic efficiency. To be noted: co-substrate PEP; only kcat/Km, in figure.

A further assay deals with T2, E. faecalis PK (Enterococcus faecalis, UniProt Q836R2).
T2 construct: gene pyk; construct and purification not described
T2 sequence (Q836R2 1-585): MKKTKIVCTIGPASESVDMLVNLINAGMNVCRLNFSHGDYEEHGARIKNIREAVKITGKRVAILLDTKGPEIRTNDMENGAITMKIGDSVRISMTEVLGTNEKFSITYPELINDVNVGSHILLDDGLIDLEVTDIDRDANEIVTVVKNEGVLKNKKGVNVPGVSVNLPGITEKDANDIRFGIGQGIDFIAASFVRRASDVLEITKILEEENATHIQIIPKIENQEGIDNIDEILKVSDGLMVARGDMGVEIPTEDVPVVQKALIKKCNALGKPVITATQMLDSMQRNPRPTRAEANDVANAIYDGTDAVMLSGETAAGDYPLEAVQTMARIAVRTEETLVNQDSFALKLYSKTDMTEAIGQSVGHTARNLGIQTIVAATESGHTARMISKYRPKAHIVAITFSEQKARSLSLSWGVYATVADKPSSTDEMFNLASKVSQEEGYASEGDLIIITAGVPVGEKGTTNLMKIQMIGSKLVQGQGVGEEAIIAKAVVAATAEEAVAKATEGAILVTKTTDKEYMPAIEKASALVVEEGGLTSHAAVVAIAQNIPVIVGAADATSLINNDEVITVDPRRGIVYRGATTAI
Described as above. To be noted: co-substrate PEP; only kcat/Km, in figure.

Assay [1] addresses T3, B. subtilis pyruvate kinase (PK) (Bacillus subtilis, UniProt P80885).
T3 construct: gene pyk
T3 sequence (P80885 1-585): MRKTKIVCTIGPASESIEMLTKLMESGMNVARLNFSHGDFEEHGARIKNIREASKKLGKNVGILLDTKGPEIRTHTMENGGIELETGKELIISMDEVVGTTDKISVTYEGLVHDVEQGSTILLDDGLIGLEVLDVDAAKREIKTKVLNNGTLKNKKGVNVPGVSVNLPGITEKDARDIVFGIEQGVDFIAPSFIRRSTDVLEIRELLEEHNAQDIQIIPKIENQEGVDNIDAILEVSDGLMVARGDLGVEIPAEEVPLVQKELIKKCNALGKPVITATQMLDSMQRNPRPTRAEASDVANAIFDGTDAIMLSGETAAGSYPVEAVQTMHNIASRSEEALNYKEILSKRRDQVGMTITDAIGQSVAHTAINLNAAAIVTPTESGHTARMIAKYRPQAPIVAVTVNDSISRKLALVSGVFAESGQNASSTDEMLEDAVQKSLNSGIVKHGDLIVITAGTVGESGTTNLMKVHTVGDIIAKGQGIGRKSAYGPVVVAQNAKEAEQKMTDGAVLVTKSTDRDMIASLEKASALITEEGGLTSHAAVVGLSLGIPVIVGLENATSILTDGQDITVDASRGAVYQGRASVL
Nature of the assay: activation of initial velocity, lactate dehydrogenase-coupled assay. To be noted: activator at 1 mM; NDP varied, co-substrate PEP.

With `Nc1ncnc2c1ncn2[C@@H]1O[C@H](COP(=O)(O)OP(=O)(O)O)[C@@H](O)[C@H]1O` [ADP], the “pyruvate kinase activity assay, catalytic efficiency” value on L. monocytogenes PK was “L. monocytogenes PK can use ADP and UDP but less efficiently than GDP”; at E. faecalis PK it was “E. faecalis PK is also able to use ADP with high efficiency”.
Consider `Nc1nc2c(ncn2[C@@H]2O[C@H](COP(=O)(O)OP(=O)(O)O)[C@@H](O)[C@H]2O)c(=O)[nH]1` [GDP], for which the “pyruvate kinase activity assay, catalytic efficiency” value on L. monocytogenes PK is “Enterococcus faecalis and Listeria monocytogenes also showed highest catalytic efficiencies on GDP”; on E. faecalis PK it was “Enterococcus faecalis and Listeria monocytogenes also showed highest catalytic efficiencies on GDP”.
On to `Nc1ncnc2c1ncn2[C@@H]1O[C@H](COP(=O)(O)O)[C@@H](O)[C@H]1O` [AMP], for which the “activation of initial velocity, lactate dehydrogenase-coupled assay” value in assay [1] is reported as “when AMP, a known activator of pyruvate kinase, was added, we observed a marked increase”.
